In brackets after ≈: the same amount, converted by molar mass. Where two headings read alike, the source gives them in different places.
Columns and labels:
[1] = tested on: urease-positive clinical isolate of P. vulgaris; experiment: Urease inhibitory activity against P. vulgaris (Christensen's urea medium, 560 nm); type: cell-based; settings: Proteus vulgaris; 24 h at 37 °C, read at 560 nm
Protocol: To assess the inhibition of urease activity by synthetic compounds, Christensen’s urea.
medium containing urea and phenol red (pH indicator) was used for the preparation of two-fold serial dilutions of compounds in 96-well microtiter plates. Cell suspension of a urease-positive clinical isolate of P. vulgaris was prepared in a urea medium and added to each well. The turbidity of bacterial suspension was adjusted to 0.5 McFarland using a spectrophotometer, and also, the density of inoculated suspension was 1 × 10^6 CFU/ml. The concentrations of compounds were in the range of 1–512 µg/ml.
Inoculated media without adding any compound was considered a positive control, while uninoculated media were used as a negative control (blank). The anti-urease activity was assessed spectroscopically at 560 nm after 24 h incubation at 37 °C[14].

[2] = tested on: clinical isolate of P. vulgaris; experiment: Antimicrobial activity, broth microdilution (CLSI); type: cell-based; settings: Proteus vulgaris
Protocol: (§1) Then, 100 μL of each dilution was transferred into the well of a microtiter plate and inoculated with 100 μL of cell suspension with a final density of 1–5 × 10^3 CFU/ml for yeasts and 1–1.5 × 10^6 cells/ml for bacteria. Plates were incubated at proper temperature overnight, and the minimum inhibitory concentration (MIC) of compounds was determined as the lowest concentration that prevented visible growth of tested microorganisms compared with the growth in the control wells (wells without tested compounds). […] All experiments were performed in duplicate[30],[31].

E. coli ATCC 25922 = experiment: Antimicrobial activity, broth microdilution (CLSI); type: cell-based; settings: Escherichia coli, ATCC25922, read-out: MIC
Protocol: as §1

S. aureus ATCC 25923 = experiment: Antimicrobial activity, broth microdilution (CLSI); type: cell-based; settings: Staphylococcus aureus, ATCC25923
Protocol: as §1

urease = urease (Canavalia ensiformis, UniProt P07374); experiment: biochemical; type: biochemical
Sequence of urease (P07374 whole entry, looked up): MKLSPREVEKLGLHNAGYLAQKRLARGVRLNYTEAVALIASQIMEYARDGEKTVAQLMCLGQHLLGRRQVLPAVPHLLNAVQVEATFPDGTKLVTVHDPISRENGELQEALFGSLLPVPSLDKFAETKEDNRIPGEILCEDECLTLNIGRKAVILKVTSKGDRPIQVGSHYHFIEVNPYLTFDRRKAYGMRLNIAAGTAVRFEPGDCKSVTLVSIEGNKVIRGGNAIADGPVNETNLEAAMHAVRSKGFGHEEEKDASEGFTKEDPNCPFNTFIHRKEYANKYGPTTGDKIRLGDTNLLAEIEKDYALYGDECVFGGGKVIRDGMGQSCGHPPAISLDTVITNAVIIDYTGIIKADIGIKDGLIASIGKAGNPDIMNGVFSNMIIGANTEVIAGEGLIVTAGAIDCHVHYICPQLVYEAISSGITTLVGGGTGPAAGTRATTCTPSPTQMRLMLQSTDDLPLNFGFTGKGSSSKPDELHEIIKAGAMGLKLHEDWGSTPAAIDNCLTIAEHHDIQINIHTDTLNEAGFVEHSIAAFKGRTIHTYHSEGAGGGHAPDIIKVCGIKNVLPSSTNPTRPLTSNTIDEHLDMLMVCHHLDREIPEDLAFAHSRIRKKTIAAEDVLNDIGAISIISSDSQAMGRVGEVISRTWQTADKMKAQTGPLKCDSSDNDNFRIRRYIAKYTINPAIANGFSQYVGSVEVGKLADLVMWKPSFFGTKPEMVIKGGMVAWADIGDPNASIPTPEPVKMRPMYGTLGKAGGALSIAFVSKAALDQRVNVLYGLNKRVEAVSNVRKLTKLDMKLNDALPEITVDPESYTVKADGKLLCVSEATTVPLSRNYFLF
Protocol: The assay was performed exactly according to our previous report. Briefly, 850 μL of urea and 15 μL urease (0.135 units dissolved in PBS, pH 7.4) were added to 100 μL of the synthesized derivatives at different concentrations. After 30 min, to 100 μL of the incubated solution, 500 μL solution I (5.0 g phenol and 25.0 mg sodium nitroprusside in 500 mL water) was added followed by the addition of 500 μL of solution II (2.5 g sodium hydroxide, 4.2 mL sodium hypochlorite, and 5% chlorine in 500 mL water) which was further incubated at 37 °C for 30 min. The absorbance was determined by measuring indophenols at 625 nm. Thiourea was used as the standard inhibitor for urease. The IC50 values for all synthesized compounds were calculated using GraphPad Prism software (GraphPad Software, Inc., San Diego, CA)[20].

[3] = In vitro cytotoxic evaluation (MTT assay); type: cell-based; settings: human, MOLT-4 cells
Protocol: MOLT-4 (human acute lymphoblastic leukemia) cells were cultures in RPMI-1640 medium supplemented with 10% heat-inactivated fetal bovine serum. Cell viability was measured by the MTT assay. MOLT-4 cells were seeded into 96-well micro-culture plates. After 24 h, the culture medium was replaced with a medium containing different concentrations of newly synthesized derivatives. Control wells were supplemented with the same volume of growth medium not containing any drugs. Cells were then incubated at 37 °C for 72 h. At the end of the exposure time, the medium was removed and MTT solution of 0.5 mg/ml was added to each well. The plates were incubated at 37 °C for 4 h, after which DMSO was added to each well to solubilize the formed formazan crystals, and the absorbance of each well was read with a microplate reader at 570 nm.

C. albicans ATCC 10261 = experiment: Antimicrobial activity, broth microdilution (CLSI); type: cell-based; settings: Candida albicans, ATCC10261
Protocol: The antimicrobial activity of designed compounds was investigated using broth microdilution.
Briefly, twofold serial dilutions of the compounds were prepared in Mueller–Hinton Broth (MHB, HiMedia) for bacterial strains and RPMI-1640 (Sigma-Aldrich) for yeast strain (Ranging 1–512 µg/ml). Then, 100 μL of each dilution was transferred into the well of a microtiter plate and inoculated with 100 μL of cell suspension with a final density of 1–5 × 10^3 CFU/ml for yeasts and 1–1.5 × 10^6 cells/ml for bacteria. Plates were incubated at proper temperature overnight, and the minimum inhibitory concentration (MIC) of compounds was determined as the lowest concentration that prevented visible growth of tested microorganisms compared with the growth in the control wells (wells without tested compounds). Moreover, the minimum bactericidal/fungicidal concentration (MBC/MFC) of compounds was determined by transferring the 10 µl of clear wells into the agar media. Standard antibacterial and antifungal agents (Ciprofloxacin and Fluconazole) were evaluated. All experiments were performed in duplicate[30],[31].

[4] = mean ± SEM, at least three experiments, read-out: IC50 (μM), urease inhibitory activity

Compound | IC50 [1] [µg/mL] | MIC [2] [µg/mL] | MIC (E. coli ATCC 25922) [µg/mL] | MIC (S. aureus ATCC 25923) [µg/mL] | IC50 (urease) [µM] | melting point [°C] | viability at 72 h, 100 µM [3] [%] | MIC (C. albicans ATCC 10261) [µg/mL] | IC50 (urease; mean ± SEM, at least three experiments, listed as hydroxyurea, read-out: IC50 (μM), urease inhibitory activity) [µM] | IC50 (urease; [4]) [µM] | IC50 at 72 h ([3]; read-out: IC50 (µM), cytotoxicity) [µM]
CCCNC(=O)CC1SC(=S)N(Cc2ccccc2)C1=O (centres unmarked) [Compound 6d, 2-(3-benzyl-4-oxo-2-thioxothiazolidin-5-yl)-N-propylacetamide] | 126 ± 8.65 (≈ 390 µM) | > 512 | > 512 | > 512 | 1.85 ± 0.66 | 165 to 167 | 95.5 ± 3.2 | > 512 | – | – | –
CCCCN1C(=O)C(CC(=O)NCc2ccc(C)cc2)SC1=S (centres unmarked) [Compound 6j, 2-(3-butyl-4-oxo-2-thioxothiazolidin-5-yl)-N-(4-methylbenzyl)acetamide] | – | – | – | – | 5.66 ± 0.79 | 174 to 176 | 97.7 ± 4.6 | – | – | – | –
O=C(CC1SC(=S)N(Cc2ccccc2)C1=O)NCc1ccc(F)cc1 (centres unmarked) [Compound 6c, 2-(3-benzyl-4-oxo-2-thioxothiazolidin-5-yl)-N-(4-fluorobenzyl)acetamide] | – | > 512 | > 512 | > 512 | 2.15 ± 0.18 | 169 to 171 | 92.7 ± 3.6 | > 512 | – | – | –
C=CCNC(=O)CC1SC(=S)N(Cc2ccccc2)C1=O (centres unmarked) [Compound 6g, N-allyl-2-(3-benzyl-4-oxo-2-thioxothiazolidin-5-yl)acetamide] | 61.7 ± 6.41 (≈ 192 µM) | > 512 | > 512 | > 512 | 1.61 ± 0.5 | – | 91.6 ± 3.7 | > 512 | – | – | –
OC(Cn1cncn1)(Cn1cncn1)c1ccc(F)cc1F [Fluconazole, reference compound] | – | – | – | – | – | – | – | 4 (≈ 13.1 µM) | – | – | –
CCCCN1C(=O)C(CC(=O)NCC(C)C)SC1=S (centres unmarked) [Compound 6k, 2-(3-butyl-4-oxo-2-thioxothiazolidin-5-yl)-N-isobutylacetamide] | – | > 512 | > 512 | > 512 | 1.91 ± 0.57 | 170 to 172 | 98.5 ± 1.4 | > 512 | – | – | –
Cc1ccc(CNC(=O)CC2SC(=S)N(Cc3ccccc3)C2=O)cc1 (centres unmarked) [Compound 6b, 2-(3-benzyl-4-oxo-2-thioxothiazolidin-5-yl)-N-(4-methylbenzyl)acetamide] | – | > 512 | > 512 | > 512 | 4.02 ± 1.12 | 167 to 169 | 91.2 ± 4.2 | > 512 | – | – | –
NC(=O)NO [Hydroxyurea, reference compound] | – | – | – | – | – | – | – | – | 100 | 100 ± 2.5 | –
CC(C)CN1C(=O)C(CC(=O)NCc2ccccc2)SC1=S (centres unmarked) [Compound 6l, N-benzyl-2-(3-isobutyl-4-oxo-2-thioxothiazolidin-5-yl)acetamide] | – | > 512 | > 512 | > 512 | 4.38 ± 0.61 | 169 to 171 | 93.6 ± 4.5 | > 512 | – | – | –
NC(N)=S [Thiourea, reference compound] | – | – | – | – | – | – | – | – | – | 23.6 ± 0.84 | –
O=C(CC1SC(=S)N(Cc2ccccc2)C1=O)NCc1ccccc1 (centres unmarked) [Compound 6a, N-benzyl-2-(3-benzyl-4-oxo-2-thioxothiazolidin-5-yl)acetamide] | – | > 512 | > 512 | > 512 | 2.22 ± 0.36 | 168 to 170 | 95.5 ± 2.7 | > 512 | – | – | –
COc1cccc2c1C(=O)c1c(O)c3c(c(O)c1C2=O)C[C@@](O)(C(=O)CO)C[C@@H]3O[C@H]1C[C@H](N)[C@H](O)[C@H](C)O1 [Doxorubicin, reference compound] | – | – | – | – | – | – | – | – | – | – | 12.7 ± 2.4
Cc1ccc(CNC(=O)CC2SC(=S)N(CC(C)C)C2=O)cc1 (centres unmarked) [Compound 6m, 2-(3-isobutyl-4-oxo-2-thioxothiazolidin-5-yl)-N-(4-methylbenzyl)acetamide] | – | > 512 | > 512 | > 512 | 3.09 ± 1.08 | 173 to 175 | 97.7 ± 2.9 | > 512 | – | – | –
